Results as given in US6967196B1, “Sulfonamide compounds and uses thereof” (Bristol-Myers Squibb Company, priority 1999, dated 2005).
Structures can show the parent of a compound that is named as a salt. Where two headings read alike, the source gives them in different places.

Test system: amyloid β production in transfected H4 (human neuroglioma) cells stably expressing APP constructs
Test: In vitro cell-based assay of inhibitors of amyloid β production (ELISA)
Conditions: transfected H4 cells stably expressing APP, approximately 16 hours incubation, amyloid β in medium by ELISA, Table B, read-out: ACTIVITY (IC50, inhibition of amyloid β production)
Outline: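 Plate wt/variant APP cells; ≥6 h later swap to medium + compound (10-100 μM screen); incubate ~16 h; sample medium; Aβ ELISA with C-terminal capture / N-terminal detection Abs; quantify vs Aβ standard curve.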

C[C@H](c1ccccc1CCC(=O)NCc1ccco1)N(c1cc(F)ccc1F)S(=O)(=O)c1ccc(Cl)cc1 [Example 404, 3-[2-((1R)-1-{[(4-chlorophenyl)sulfonyl]-2,5-difluoroanilino}ethyl)phenyl]-N-(2-furylmethyl)propanamide]
IC50 (Homo sapiens, 16 h): 50 to 100 nM

C[C@H](c1ccc(F)cc1CN1CCS(=O)(=O)CC1)N(c1cc(F)ccc1F)S(=O)(=O)c1ccc(Cl)cc1 [Example 405]
IC50 (Homo sapiens, 16 h): 50 to 100 nM

C[C@H](c1ccccc1CCC(=O)NC1CCCc2ccccc21)N(c1cc(F)ccc1F)S(=O)(=O)c1ccc(Cl)cc1 (stereo partly drawn) [Example 406, 3-[2-((1R)-1-{[(4-chlorophenyl)sulfonyl]-2,5-difluoroanilino}ethyl)phenyl]-N-(1,2,3,4-tetrahydro-1-naphthalenyl)propanamide]
IC50 (Homo sapiens, 16 h): 50 to 100 nM

O=S(=O)(c1ccc(Cl)cc1)N(Cc1ccccc1OCCC[S+]([O-])C1CCCCC1)c1cc(F)ccc1F (centres unmarked) [Example 407, 4-chloro-N-{2-[3-(cyclohexylsulfinyl)propoxy]benzyl}-N-(2,5-difluorophenyl)benzenesulfonamide]
IC50 (Homo sapiens, 16 h): 50 to 100 nM

CC(c1ccccc1OCCCNC(=O)c1c(F)cccc1F)N(c1cc(F)ccc1F)S(=O)(=O)c1ccc(Cl)cc1 (centres unmarked) [Example 408, N-{3-[2-(1-{[(4-chlorophenyl)sulfonyl]-2,5-difluoroanilino}ethyl)phenoxy]propyl}-2,6-difluorobenzamide]
IC50 (Homo sapiens, 16 h): 50 to 100 nM

CC(c1ccccc1OCCCN(C)S(=O)(=O)c1ccc([N+](=O)[O-])cc1)N(c1cc(F)ccc1F)S(=O)(=O)c1ccc(Cl)cc1 (centres unmarked) [Example 410, 4-chloro-N-(2,5-difluorophenyl)-N-{1-[2-(3-{methyl[(4-nitrophenyl)sulfonyl]amino}propoxy)phenyl]ethyl}benzenesulfonamide]
IC50 (Homo sapiens, 16 h): 50 to 100 nM

CCN(CCOc1ccccc1C(C)N(c1cc(F)ccc1F)S(=O)(=O)c1ccc(Cl)cc1)C(=O)CSc1ccccc1 (centres unmarked) [Example 417, N-{2-[2-(1-{[(4-chlorophenyl)sulfonyl]-2,5-difluoroanilino}ethyl)phenoxy]ethyl}-N-ethyl-2-(phenylsulfanyl)acetamide]
IC50 (Homo sapiens, 16 h): 50 to 100 nM

C[C@H](c1ccc(F)cc1CCOC(=O)NCc1ccc(F)cc1)N(c1cc(F)ccc1F)S(=O)(=O)c1ccc(Cl)cc1 [Example 419, 2-[2-((1R)-1-{[(4-chlorophenyl)sulfonyl]-2,5-difluoroanilino}ethyl)-5-fluorophenyl]ethyl 4-fluorobenzylcarbamate]
IC50 (Homo sapiens, 16 h): 50 to 100 nM

CC(c1ccccc1OCCCN(C)C(=O)CCC1CCCC1)N(c1cc(F)ccc1F)S(=O)(=O)c1ccc(Cl)cc1 (centres unmarked) [Example 428, N-{3-[2-(1-{[(4-chlorophenyl)sulfonyl]-2,5-difluoroanilino}ethyl)phenoxy]propyl}-3-cyclopentyl-N-methylpropanamide]
IC50 (Homo sapiens, 16 h): 50 to 100 nM

C[C@H](c1ccc(F)cc1CCOC(=O)NCc1ccco1)N(c1cc(F)ccc1F)S(=O)(=O)c1ccc(Cl)cc1 [Example 435, 2-[2-((1R)-1-{[(4-chlorophenyl)sulfonyl]-2,5-difluoroanilino}ethyl)-5-fluorophenyl]ethyl 2 furylmethylcarbamate]
IC50 (Homo sapiens, 16 h): 50 to 100 nM

C[C@H](c1ccccc1Cn1ccnc1)N(c1cc(F)ccc1F)S(=O)(=O)c1ccc(Cl)cc1 [Example 438, 4-chloro-N-(2,5-difluorophenyl)-N-{(1R)-1-[2-(1H-imidazol-1-ylmethyl)phenyl]ethyl}benzenesulfonamide hydrochloride]
IC50 (Homo sapiens, 16 h): 50 to 100 nM

COC(=O)CCS(=O)(=O)Cc1cc(F)ccc1[C@@H](C)N(c1cc(F)ccc1F)S(=O)(=O)c1ccc(Cl)cc1 [Example 466, Methyl 3-{[2-((1R)-1-{[(4-chlorophenyl)sulfonyl]-2,5-difluoroanilino}ethyl)-5-fluorobenzyl]sulfonyl}propanoate]
IC50: 50 to 100 nM

C[C@H](c1ccc(F)cc1CS(=O)(=O)CCC(=O)O)N(c1cc(F)ccc1F)S(=O)(=O)c1ccc(Cl)cc1 [Example 467, 3-{[2-((1R)-1-{[(4-chlorophenyl)sulfonyl]-2,5-difluoroanilino}ethyl)-5-fluorobenzyl]sulfonyl}propanoic Acid]
IC50: 50 to 100 nM

COC(=O)[C@H](CSCc1cc(F)ccc1[C@@H](C)N(c1cc(F)ccc1F)S(=O)(=O)c1ccc(Cl)cc1)NC(=O)OC(C)(C)C [Example 468, Methyl (2R)-2-[(tert-butoxycarbonyl)amino]-3-{[2-((1R)-1-{[(4-chlorophenyl)sulfonyl]-2,5-difluoroanilino}ethyl)-5-fluorobenzyl]sulfanyl}propanoate]
IC50: 50 to 100 nM

COC(=O)[C@H](CS(=O)(=O)Cc1cc(F)ccc1[C@@H](C)N(c1cc(F)ccc1F)S(=O)(=O)c1ccc(Cl)cc1)NC(=O)OC(C)(C)C [Example 469, Methyl (2R)-2-[(tert-butoxycarbonyl)amino]-3-{[2-((1R)-1-{[(4-chlorophenyl)sulfonyl]-2,5-difluoroanilino}ethyl)-5-fluorobenzyl]sulfonyl}propanoate]
IC50: 50 to 100 nM

COC(=O)C(N)CS(=O)(=O)Cc1cc(F)ccc1[C@@H](C)N(c1cc(F)ccc1F)S(=O)(=O)c1ccc(Cl)cc1 (stereo partly drawn) [Example 470, Methyl 2-amino-3-{[2-(1R)-1-{[(4-chlorophenyl)sulfonyl]-2,5-difluoroanilino}ethyl)-5-fluorobenzyl]sulfonyl}propanoate Hydrochloride]
IC50: 50 to 100 nM

COC(=O)[C@@H](CS(=O)(=O)Cc1cc(F)ccc1[C@@H](C)N(c1cc(F)ccc1F)S(=O)(=O)c1ccc(Cl)cc1)NC(=O)OC(C)(C)C [Example 471, Methyl (2S)-2-[(tert-butoxycarbonyl)amino]-3-{[2-((1R)-1-{[(4-chlorophenyl)sulfonyl]-2,5-difluoroanilino}ethyl)-5-fluorobenzyl]sulfonyl}propanoate]
IC50: 50 to 100 nM

COC(=O)CCSCCc1cc(F)ccc1[C@@H](C)N(c1cc(F)ccc1F)S(=O)(=O)c1ccc(Cl)cc1 [Example 473]
IC50: 50 to 100 nM

COC(=O)CCS(=O)(=O)CCc1cc(F)ccc1[C@@H](C)N(c1cc(F)ccc1F)S(=O)(=O)c1ccc(Cl)cc1 [Example 474, Methyl 3-({2-[2-((1R)-1-{[(4-chlorophenyl)sulfonyl]-2,5-difluoroanilino}ethyl)-5-fluorophenyl]ethyl}sulfonyl)propanoate]
IC50: 100 to 500 nM

C[C@H](c1ccc(F)cc1CCS(=O)(=O)CCC(=O)O)N(c1cc(F)ccc1F)S(=O)(=O)c1ccc(Cl)cc1 [Example 475, 3-({2-[2-((1R)-1-{[(4-chloro-phenyl)sulfonyl]-2,5-difluoroanilino}ethyl)-5-fluorophenyl]ethyl}sulfonyl)propanoic Acid]
IC50: 100 to 500 nM

COC(=O)C[S+]([O-])CCc1cc(F)ccc1[C@@H](C)N(c1cc(F)ccc1F)S(=O)(=O)c1ccc(Cl)cc1 (stereo partly drawn) [Example 476, Methyl ({2-[2-((1R)-1-{[(4-chlorophenyl)sulfonyl]-2,5-difluoroanilino}ethyl)-5-fluorophenyl]ethyl}sulfinyl)acetate]
IC50: 100 to 500 nM

COC(=O)CSCCc1cc(F)ccc1[C@@H](C)N(c1cc(F)ccc1F)S(=O)(=O)c1ccc(Cl)cc1 [Example 477, Methyl ({2-[2-((1R)-1-[[(4-chlorophenyl)sulfonyl]-2,5-difluoroanilino}ethyl)-5-fluorophenyl]ethyl}sulfanyl)acetate]
IC50: 100 to 500 nM

COC(=O)CS(=O)(=O)CCc1cc(F)ccc1[C@@H](C)N(c1cc(F)ccc1F)S(=O)(=O)c1ccc(Cl)cc1 [Example 478, Methyl ({2-[2-((1R)-1-{[(4-chlorophenyl)sulfonyl]-2,5-difluoroanilino}ethyl)-5-fluorophenyl]ethyl}sulfonyl)acetate]
IC50: 100 to 500 nM
